How the values were obtained:
[1] = system: MDA-MB-468 breast cancer cells; assay: Proliferation of MDA-MB-468 breast cancer cells after ICA-1, viable cell count by Trypan blue exclusion; type: cell-based, human; details: vs vehicle control
Method: Five thousand cells were plated in T-25 cm^2 flasks. Twenty-four hours post vehicle control or ICA-1 treatment, the number of viable cells was counted by Trypan blue exclusion. Data shown are the mean+/−SD of two independent experiments.
Briefly, MDA-MB-468 breast cancer cells were treated with 0.1 μM or 0.5 μM ICA-1. Cell viability and cell count were determined 24 hours following addition of either vehicle control or ICA-1.

IKK-α/IKK-β = assay: Phosphorylation of IKK-α/IKK-β; type: cell-based
cancer cells [2] = assay: DNA fragmentation, TUNEL assay; type: cell-based
Excerpt: (§1) In addition, the present inventors have discovered that ICA-1 promotes apoptosis of cancer cells.

cancer cells [3] = assay: Chromatin condensation, DAPI staining of the nucleus; type: cell-based
Excerpt: as §1

PKC-ι = target: T1, PKC-ι (Homo sapiens, UniProt P41743); assay: Inhibition of PKC-ι activity; type: biochemical
T1 sequence (P41743 10-596 limits assumed): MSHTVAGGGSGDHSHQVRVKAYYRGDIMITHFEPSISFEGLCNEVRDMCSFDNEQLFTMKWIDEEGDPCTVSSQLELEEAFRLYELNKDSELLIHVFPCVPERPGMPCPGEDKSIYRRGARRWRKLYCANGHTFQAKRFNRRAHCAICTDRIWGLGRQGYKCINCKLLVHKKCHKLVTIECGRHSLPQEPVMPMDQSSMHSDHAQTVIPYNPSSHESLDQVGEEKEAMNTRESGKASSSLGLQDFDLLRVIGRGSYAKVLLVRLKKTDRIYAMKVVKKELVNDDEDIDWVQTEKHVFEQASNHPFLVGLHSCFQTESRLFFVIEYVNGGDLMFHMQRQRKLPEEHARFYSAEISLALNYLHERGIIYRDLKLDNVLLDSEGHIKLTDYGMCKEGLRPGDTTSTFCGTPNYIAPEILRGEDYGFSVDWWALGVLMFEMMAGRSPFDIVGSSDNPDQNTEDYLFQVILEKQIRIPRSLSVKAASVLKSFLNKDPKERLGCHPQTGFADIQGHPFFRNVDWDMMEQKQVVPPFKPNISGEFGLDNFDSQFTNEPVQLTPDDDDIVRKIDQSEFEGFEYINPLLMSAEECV

NC(=O)c1ncn(C2CC(COP(=O)(O)O)C(O)C2O)c1N (stereo not drawn) [ICA-1, 1H-imidazole-4-carboxamide,5-amino-1-[2,3-dihydroxy-4-[(phosphonooxy)methyl]cyclopentyl]-,[1R-(1α, 2β, 3β, 4α)]]
decrease of proliferation of MDA-MB-468 cells ([1]; 0.1 μM ICA-1, 24 hours post-treatment): 77%
decrease of proliferation of MDA-MB-468 cells ([1]; 0.5 μM ICA-1, 24 hours post-treatment, P=0.05): 50%
phosphorylation of IKK-α/IKK-β (IKK-α/IKK-β): inhibits the phosphorylation
DNA fragmentation in cancer cells (cancer cells [2]): induced DNA fragmentation
chromatin condensation in cancer cells (cancer cells [3]): induced chromatin condensation
activity of PKC-ι (PKC-ι): potently inhibits

Reference: patent US9351981B2, “Use of PKC-iota inhibitors for the treatment of breast cancer” (UNIVERSITY OF SOUTH FLORIDA, priority 2007, dated 2016)
